Measurements from US5217882A, “Microbial transformation process for producing antihypertensive N2 -glucuronide products” (Merck & Co., Inc., priority 1992, dated 1993).

Target: T1, Angiotensin II (A II) receptor (Oryctolagus cuniculus, UniProt P34976)
T1 construct: tissue Pel-Freeze Biologicals; host or cells: rabbit aorta, membrane preparation
T1 sequence (P34976 1-359): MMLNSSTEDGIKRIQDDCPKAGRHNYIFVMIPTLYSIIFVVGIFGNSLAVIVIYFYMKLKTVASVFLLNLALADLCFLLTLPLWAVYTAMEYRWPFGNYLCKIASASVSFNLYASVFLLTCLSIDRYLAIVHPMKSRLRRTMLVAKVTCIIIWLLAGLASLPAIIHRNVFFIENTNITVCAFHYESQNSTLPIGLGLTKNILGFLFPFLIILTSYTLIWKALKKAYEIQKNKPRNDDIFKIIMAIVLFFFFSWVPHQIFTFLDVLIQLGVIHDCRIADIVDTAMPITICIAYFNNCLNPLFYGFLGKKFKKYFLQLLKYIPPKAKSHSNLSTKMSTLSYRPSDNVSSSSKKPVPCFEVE
Experiment: Receptor binding assay using rabbit aortae membrane preparation ("IC50" assay; displacement of 125I-Sar1 Ile8-angiotensin II)
Conditions: 37° C. for 90 minutes, read-out: inhibitory concentration (IC50) giving 50% displacement of total specifically bound 125I-Sar1 Ile8-angiotensin II
Description: This assay is also referred to herein as the "IC50 " assay.
Receptor binding assay using rabbit aortae membrane preparation
Three frozen rabbit aortae (obtained from Pel-Freeze Biologicals) were suspended in 5 mM Tris-0.25M Sucrose, pH 7.4 buffer (50 ml) homogenized, and then centrifuged. The mixture was filtered through a cheesecloth and the supernatant was centrifuged for 30 minutes at 20,000 rpm at 4° C. The pellet thus obtained was resuspended in 30 ml of 50 mM Tris-5 mM MgCl2 buffer containing 0.2% Bovine Serum Albumin and 0.2 mg/ml Bacitration and the suspension was used for 100 assay tubes. Samples tested for screening were done in duplicate. To the membrane preparation (0.25 ml) there was added ^125 I-Sar^1 -Ile^8 -angiotensin II [obtained from New England Nuclear] (10 ul; 20,000 cpm) with or without the test sample and the mixture was incubated at 37° C. for 90 minutes. The mixture was then diluted with ice-cold 50 mM Tris-0.9% NaCl, pH 7.4 (4 ml) and filtered through a glass fiber filter (GF/B Whatman 2.4" diameter). The filter was soaked in scintillation cocktail (10 ml) and counted for radioactivity using Packard 2660 Tricarb liquid scintillation counter. […]

CCCCc1nc(Cl)c(CO)n1Cc1ccc(-c2ccccc2-c2nnn(C3OC(C(=O)O)C(O)C(O)C3O)n2)cc1 (stereo not shown) [compound (I)]
IC50: < 50 µM
